Laboratory results as given in ChEMBL document CHEMBL3526001, “Attenuation of intestinal absorption by major efflux transporters: quantitative tools and strategies using a Caco-2 model” (Drug Metab Dispos, 2011).

Columns and labels:
in vitro [1] = settings: human, Caco-2
in vitro [2] = settings: human, Caco-2; remark: listed apart in the source
in vitro [3] = settings: human, Caco-2; remark: listed apart in the source
P-gp = experiment: in vitro; settings: human
[4] = human, caco-2, 2 h, 10 µM
[5] = human, caco-2, 2 h, 10 µM; remark: listed apart in the source
clinical = settings: human, in vivo
Description: Fraction absorbed in human

Row | SMILES | Papp A→B at 2 h, 10 µM (in vitro [1]) [×10⁻⁶ cm/s] | Papp B→A at 2 h, 10 µM (in vitro [2]) [×10⁻⁶ cm/s] | efflux ratio at 2 h, 10 µM (in vitro [3]) | efflux ratio at 2 h, 10 µM (P-gp; Caco-2, with LY335979 1 uM) | Papp [4] [×10⁻⁶ cm/s] | Papp [5] [×10⁻⁶ cm/s] | Fa (clinical) [%] | efflux ratio at 2 h, 10 µM (P-gp; Caco-2)
1 | C[C@H]1C[C@@H]2[C@H]([C@@H](O)C[C@@]3(C)[C@H]2CC[C@]3(O)C(=O)CO)[C@@]2(C)C=CC(=O)C=C12 [METHYLPREDNISOLONE] | 8.5 | 24.6 | 2.9 | 0.8 |  |  |  | 
2 | CN(C)C(=O)C(CCN1CCC(O)(c2ccc(Cl)cc2)CC1)(c1ccccc1)c1ccccc1 [LOPERAMIDE] | 5.8 | 7.6 |  |  |  |  |  | 
3 | Nc1cc(-c2ccncc2)c[nH]c1=O [INAMRINONE] |  |  | 1.4 | 3.3 | 7.5 | 16.6 |  | 
4 | O=C(O)CN(CCN(CC(=O)O)Cc1ccccc1O)Cc1ccccc1O | 0.02 | 0.04 | 2.1 | 2 |  |  |  | 
5 | CCCCC(=O)N(Cc1ccc(-c2ccccc2-c2nnn[nH]2)cc1)[C@H](C(=O)O)C(C)C | 0.4 | 1.7 | 4.1 |  |  |  | 25 | 2.9
6 | CCN(CC)CCCC(C)Nc1ccnc2cc(Cl)ccc12 (stereo not drawn) [CHLOROQUINE] |  |  |  |  |  |  | 89 | 
7 | O=C1c2c(O)ccc(O)c2C(=O)c2c(NCCNCCO)ccc(NCCNCCO)c21 [MITOXANTRONE] | 26.3 | 12.5 | 0.5 |  |  |  | 85 | 0.6
8 | O=C1C(CC[S+]([O-])c2ccccc2)C(=O)N(c2ccccc2)N1c1ccccc1 (stereo not drawn) [SULFINPYRAZONE] |  |  | 3.3 | 9 | 1.2 | 5.8 | 85 | 
9 | CCc1c2c(nc3ccc(OC(=O)N4CCC(N5CCCCC5)CC4)cc13)-c1cc3c(c(=O)n1C2)COC(=O)[C@]3(O)CC [IRINOTECAN] | 1.4 | 5.1 | 3.7 | 2.7 |  |  |  | 
10 | OCCN(CCO)c1nc(N2CCCCC2)c2nc(N(CCO)CCO)nc(N3CCCCC3)c2n1 [DIPYRIDAMOLE] |  |  |  |  |  |  | 66 | 
11 | CC[C@H]1OC(=O)[C@H](C)[C@@H](O[C@H]2C[C@@](C)(OC)[C@@H](O)[C@H](C)O2)[C@H](C)[C@@H](O[C@@H]2O[C@H](C)C[C@H](N(C)C)[C@H]2O)[C@](C)(OC)C[C@@H](C)C(=O)[C@H](C)[C@@H](O)[C@]1(C)O [CLARITHROMYCIN] | 3.5 | 18 | 5.1 |  |  |  | 50 | 0.8
12 | O=C1CN(/N=C/c2ccc([N+](=O)[O-])o2)C(=O)N1 [NITROFURANTOIN] | 1.1 | 11.1 | 10.4 |  |  |  | 100 | 
13 | CC(C)CN(C[C@@H](O)[C@H](Cc1ccccc1)NC(=O)O[C@H]1CCOC1)S(=O)(=O)c1ccc(N)cc1 | 8 |  |  |  |  |  | 70 | 
14 | CC(C)c1nc(N(C)S(C)(=O)=O)nc(-c2ccc(F)cc2)c1/C=C/[C@@H](O)C[C@@H](O)CC(=O)O [ROSUVASTATIN] | 0.5 | 7.5 | 15.9 |  |  |  | 20 | 
15 | O=C(O)c1cc(/N=N/c2ccc(O)c(C(=O)O)c2)ccc1O [OLSALAZINE] | 0.9 | 3.1 | 3.7 | 1.9 |  |  |  | 
16 | CCCC(=O)Nc1ccc(OCC(O)CNC(C)C)c(C(C)=O)c1 (stereo not drawn) [ACEBUTOLOL] | 1.1 | 4.1 | 3.6 |  |  |  | 70 | 1
17 | O=C(CCCN1CCC(O)(c2ccc(Cl)cc2)CC1)c1ccc(F)cc1 [HALOPERIDOL] | 4.1 | 1.8 | 0.4 | 0.4 |  |  | 60 | 
18 | C=CC[C@@H]1/C=C(\C)C[C@H](C)C[C@H](OC)[C@H]2O[C@@](O)(C(=O)C(=O)N3CCCC[C@H]3C(=O)O[C@H](/C(C)=C/[C@@H]3CC[C@@H](O)[C@H](OC)C3)[C@H](C)[C@@H](O)CC1=O)[C@H](C)C[C@@H]2OC [TACROLIMUS ANHYDROUS] | 1 | 3.6 | 3.5 | 0.7 |  |  | 25 | 
19 | COc1cc([C@@H]2c3cc4c(cc3[C@@H](O[C@@H]3O[C@@H]5CO[C@@H](c6cccs6)O[C@H]5[C@H](O)[C@H]3O)[C@H]3COC(=O)[C@H]23)OCO4)cc(OC)c1O [TENIPOSIDE] | 0.9 | 8.8 | 9.8 | 2.1 |  |  | 0 | 
20 | COc1cc(Cc2cnc(N)nc2N)cc(OC)c1OC [TRIMETHOPRIM] | 15.9 | 11.2 | 0.7 |  |  |  |  | 0.4
